This passage reports Emax and EC50 results from patent publication US20250388574A1, “HETEROCYCLIC COMPOUNDS AS TRIGGERING RECEPTOR EXPRESSED ON MYELOID CELLS 2 AGONISTS AND METHODS OF USE” (AMGEN INC., priority 2020, published 2025).

This test concerns the target hTREM2 (Homo sapiens, UniProt Q9NZC2). As to the kind of experiment: Phospho-Syk AlphaScreen/AlphaLISA assay in TREM2 and DAP12 overexpressing HEK293 cells (Example A1). The test is classed as cell-based. Also on record: expressed in transfected cells. The note with it: HEK293 cells; for EC50: read-out: hTREM2 EC50. As for the experimental part: Pharmacological measurements of TREM2 signaling through DAP12 were made with TREM2 and DAP12 overexpressing HEK293 cells stable cell lines that had been single-cell cloned (“TREM2/DAP12-HEK”). The readout of the TREM2 signaling utilized Perkin Elmer AlphaScreen/AlphaLISA technology monitoring the phosphorylation levels of the Syk kinase. TREM2/DAP12-HEK cell lines were cultured in DMEM-F12 (Corning 10-092-CM) supplemented with 1× Penicillin/Streptomycin (Corning 30-002-CI), 1× GlutaMAX (Gibco 35050-061), and 10% Fetal Bovine Serum (Life Technologies 10099) referred to as “HEK Culture Medium”. Suspensions of TREM2/DAP12-HEK cells were prepared in HEK Culture Medium and dispensed into 384-well poly-D-lysine coated microplates (Corning 354661) at a density of 20,000 cells/well using a Multidrop Combi peristaltic microplate dispenser (Thermo), 25 uL volume of cell suspension/well. Plates containing cells were then incubated for 20 hours in a humidified cell culture incubator at 37° C. with 5% CO2 (Thermo). […] Assay Buffer contained diluted test articles (in 1% final DMSO concentration for compounds) or 100 nM anti-human/mouse TREM2 antibody (R&D Systems MAB17291) as a positive control, 100 nM or rat IgG2B isotype Ab as a negative control (R&D Systems MAB0061). Incubated the plates with test articles and controls for 45 minutes at room temperature and then aspirated/removed the medium from each well of the plates. Used a Multidrop Combi peristaltic liquid handler (Thermo) to dispense 15 uL/well of “Cell Lysis Immunoassay Buffer”. The Cell Lysis Immunoassay Buffer contained M-PER Mammalian Protein Extraction Reagent (Pierce/ThermoFisher 78505), 1× Halt Phosphatase Inhibitor Cocktail (ThermoFisher #78427), 0.1875 nM anti-phospho-Syk ([…]/526) ([…]) rabbit mAb (Cell Signaling Technologies catalog #2710), and 1.5 nM biotinylated Mouse anti-human Syk (4D10) antibody (BD Biosciences, catalog #624008). Incubated plates for 1 hour at room temperature after the addition of the Cell Lysis Immunoassay Buffer. Used the Multidrop Combi liquid handler to dispense 15 μL of AlphaScreen Acceptor Bead Solution containing 7.5 μg/mL anti-rabbit IgG (Fc specific) AlphaLISA Acceptor Beads (Perkin Elmer A[…]) in 1× Immunoassay buffer (Perkin Elmer A[…]) to each well of the microplates. Incubated plates for 2 hours at room temperature. Following the incubation with the AlphaLISA Acceptor Bead Solution, used a Multidrop Combi liquid handler (Thermo) to dispense 15 μL of AlphaScreen Donor Bead Solution containing 30 μg/mL of AlphaScreen Streptavidin Donor beads (Perkin Elmer 6760002B) in 1× Immunoassay buffer (Perkin Elmer A[…]) to each well of the microplates. Incubated microplates for 2 hours protected from light sources as the AlphaScreen reagents are light sensitive. Once the final incubation was completed, acquired AlphaScreen signal from the donor and acceptor beads using an Envision high throughput multi-modal microplate reader (Perkin Elmer) calibrated to the plate type with the AlphaScreen mirror and filter-set in 384-well mode, 680 nanometer excitation wavelength. The total measurement time per well was 550 milliseconds with a 180 millisecond excitation time. After reading the AlphaScreen signal for each well of the microplates, on a plate-by-plate basis, each raw test article well value (x) was normalized to a Percent of Control (“POC”) value using the following formula: […] Each plate contained 12 of each type of control wells that were used to generate the mean values. For concentration response curve analysis with test articles tested at various concentrations, the % of activation values were analyzed with 4 Parameter Logistic or Sigmoidal Dose-Response Models using GeneData Screener (GeneData, AG) or GraphPad Prism 7 (Graphpad Software, Inc.). […] This assay may be used to test any of the compounds described herein to assess and characterize a compound's ability to act as an agonist of TREM2.

Where only a bound is given, the exact number is not on record here.

Chain of hTREM2 (Q9NZC2 19-230): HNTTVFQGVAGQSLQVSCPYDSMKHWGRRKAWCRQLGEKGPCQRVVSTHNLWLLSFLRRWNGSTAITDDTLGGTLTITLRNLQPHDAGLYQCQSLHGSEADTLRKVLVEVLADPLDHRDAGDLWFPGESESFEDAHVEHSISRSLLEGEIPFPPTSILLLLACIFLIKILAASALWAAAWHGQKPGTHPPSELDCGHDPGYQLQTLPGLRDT
Chain of hTREM2 (O43914 22-113 partner): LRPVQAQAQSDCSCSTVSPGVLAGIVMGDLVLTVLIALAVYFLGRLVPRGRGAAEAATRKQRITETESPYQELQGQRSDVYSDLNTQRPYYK

As to `Cc1nc2cc(N3CCO[C@H](c4ccsc4)C3)nc(-c3ccc(Cl)cc3F)c2c(=O)n1C` (single isomer, unassigned) [Example 54], the Emax result is “++++ (Emax>300)” and the EC50 (as a rule, the midpoint of the concentration-response curve) lay in the range of 0.05 to 0.5 µM.
For `Cc1nc2cc(N3CCO[C@@H](c4ccsc4)C3)nc(-c3ccc(Cl)cc3F)c2c(=O)n1C` (single isomer, unassigned) [Example 55], in that order: “++++ (Emax>300)” and 0.5 to 3 µM.
Take `Cc1nc([C@H]2CN(c3cc4nc(C)n(C)c(=O)c4c(-c4ccc(Cl)cc4F)n3)CCO2)no1` (single isomer, unassigned) [Example 56]: the Emax result was “+++ (Emax>200 and ≤300)”; the EC50 was 3 to 100 µM.
With `Cc1nc([C@@H]2CN(c3cc4nc(C)n(C)c(=O)c4c(-c4ccc(Cl)cc4F)n3)CCO2)no1` (single isomer, unassigned) [Example 57], the Emax result was “+++ (Emax>200 and ≤300)”; the EC50 was 0.5 to 3 µM.
For `Cc1nnc([C@@H]2CN(c3cc4nc(C)n(C)c(=O)c4c(-c4ccc(Cl)cc4F)n3)CCO2)o1` (single isomer, unassigned) [Example 58], the Emax entry is “+++ (Emax>200 and ≤300)”; the concentration giving a half-maximal response (EC50) is 0.5 to 3 µM.
`Cc1nnc([C@H]2CN(c3cc4nc(C)n(C)c(=O)c4c(-c4ccc(Cl)cc4F)n3)CCO2)o1` (single isomer, unassigned) [Example 59]: the Emax result is “+++ (Emax>200 and ≤300)”; the concentration for a half-maximal effect (EC50) is 0.05 to 0.5 µM.
As for `Cc1ncc([C@@H]2CN(c3cc4nc(C)n(C)c(=O)c4c(-c4ccc(Cl)cc4F)n3)CCO2)cn1` (single isomer, unassigned) [Example 64], the Emax result was “++++ (Emax>300)” and the half-maximal effective concentration (EC50) is 0.05 to 0.5 µM.
For the compound `Cc1ncc([C@H]2CN(c3cc4nc(C)n(C)c(=O)c4c(-c4ccc(Cl)cc4F)n3)CCO2)cn1` (single isomer, unassigned) [Example 65], the Emax entry is “++ (Emax>100 and ≤200)”; the EC50 lay within 3 to 100 µM.
Turning to `Cc1c([C@@H]2CN(c3cc4nc(C)n(C)c(=O)c4c(-c4ccc(Cl)cc4F)n3)CCO2)cnn1C` (single isomer, unassigned) [Example 66], the Emax entry was “+++ (Emax>200 and ≤300)”; the EC50 is 0.05 to 0.5 µM.
Consider `Cc1c([C@H]2CN(c3cc4nc(C)n(C)c(=O)c4c(-c4ccc(Cl)cc4F)n3)CCO2)cnn1C` (single isomer, unassigned) [Example 67], for which the Emax result was “++ (Emax>100 and ≤200)”; the EC50 lay in the range of 3 to 100 µM.
Consider `Cc1nc2cc(N3C[C@H](C)O[C@@H](c4ccsc4)C3)nc(-c3ccc(Cl)cc3F)c2c(=O)n1C` (single isomer, unassigned) [Example 71], for which the Emax result is on record as “++++ (Emax>300)” and the EC50 was 0.05 to 0.5 µM.
On to `Cc1nc2cc(N3C[C@@H](c4ccsc4)O[C@@H](C)C3)nc(-c3ccc(Cl)cc3F)c2c(=O)n1C` (single isomer, unassigned) [Example 72], for which the Emax entry is reported as “++++ (Emax>300)” and the EC50 lay within 0.5 to 3 µM.
With `Cc1nc2cc(N3C[C@@H](C)O[C@@H](c4ccsc4)C3)nc(-c3ccc(Cl)cc3F)c2c(=O)n1C` (single isomer, unassigned) [Example 73], the Emax result was “+++ (Emax>200 and ≤300)”; the EC50 is 3 to 100 µM.
For the compound `Cc1nc2cc(N3C[C@@H](C)O[C@H](c4ccsc4)C3)nc(-c3ccc(Cl)cc3F)c2c(=O)n1C` (single isomer, unassigned) [Example 74], the Emax entry is “+ (Emax>45 and ≤100)”; the EC50 was in the range of 0.5 to 3 µM.
In the case of `Cc1cc([C@@H]2CN(c3cc4nc(C)n(C)c(=O)c4c(-c4ccc(Cl)cc4F)n3)CCO2)cc(C)n1` (single isomer, unassigned) [Example 76], the Emax result was “++++ (Emax>300)” and the EC50 is 0.05 to 0.5 µM.
For `Cc1cc([C@H]2CN(c3cc4nc(C)n(C)c(=O)c4c(-c4ccc(Cl)cc4F)n3)CCO2)cc(C)n1` (single isomer, unassigned) [Example 77], in that order: “++++ (Emax>300)” and < 0.05 µM.
With `COc1ccc([C@H]2CN(c3cc4nc(C)n(C)c(=O)c4c(-c4ccc(Cl)cc4F)n3)CCO2)cc1` (single isomer, unassigned) [Example 78], the Emax entry was “++++ (Emax>300)” and the EC50 was in the range of 0.05 to 0.5 µM.
Turning to `COc1ccc([C@@H]2CN(c3cc4nc(C)n(C)c(=O)c4c(-c4ccc(Cl)cc4F)n3)CCO2)cc1` (single isomer, unassigned) [Example 79], the Emax entry is “+++ (Emax>200 and ≤300)”; the EC50 was 0.5 to 3 µM.
In the case of `COc1cccc([C@H]2CN(c3cc4nc(C)n(C)c(=O)c4c(-c4ccc(Cl)cc4F)n3)CCO2)c1` (single isomer, unassigned) [Example 80], the Emax result was “++++ (Emax>300)” and the EC50 was in the range of 0.05 to 0.5 µM.
Regarding `COc1cccc([C@@H]2CN(c3cc4nc(C)n(C)c(=O)c4c(-c4ccc(Cl)cc4F)n3)CCO2)c1` (single isomer, unassigned) [Example 81], the Emax result was “+++ (Emax>200 and ≤300)”; the EC50 was 3 to 100 µM.
As for `COc1cc([C@H]2CN(c3cc4nc(C)n(C)c(=O)c4c(-c4ccc(Cl)cc4F)n3)CCO2)ccn1` (single isomer, unassigned) [Example 82], the Emax entry was “++++ (Emax>300)” and the half-maximal effective concentration (EC50) was < 0.05 µM.
With `COc1cc([C@@H]2CN(c3cc4nc(C)n(C)c(=O)c4c(-c4ccc(Cl)cc4F)n3)CCO2)ccn1` (single isomer, unassigned) [Example 83], the Emax result was “++++ (Emax>300)” and the EC50 is 0.05 to 0.5 µM.
For `Cc1nc2cc(N3CCO[C@@H](c4noc(C5CC5)n4)C3)nc(-c3ccc(Cl)cc3F)c2c(=O)n1C` (single isomer, unassigned) [Example 84] the same measures were “++++ (Emax>300)” and 0.5 to 3 µM.
For `Cc1nc2cc(N3CCO[C@H](c4noc(C5CC5)n4)C3)nc(-c3ccc(Cl)cc3F)c2c(=O)n1C` (single isomer, unassigned) [Example 85], the Emax entry is reported as “++++ (Emax>300)” and the half-maximal effective concentration (EC50) was in the range of 3 to 100 µM.
Take `Cc1nc2cc(N3CCO[C@H](c4ccc(Cl)cc4)C3)nc(-c3ccc(Cl)cc3F)c2c(=O)n1C` (single isomer, unassigned) [Example 86]: the Emax entry is reported as “++++ (Emax>300)” and the EC50 is 0.5 to 3 µM.
On to `Cc1nc2cc(N3CCO[C@@H](c4ccc(Cl)cc4)C3)nc(-c3ccc(Cl)cc3F)c2c(=O)n1C` (single isomer, unassigned) [Example 87], for which the Emax result is on record as “++++ (Emax>300)” and the EC50 lay in the range of 0.5 to 3 µM.
`Cc1nc2cc(N3CCO[C@H](c4ccnc(Cl)c4)C3)nc(-c3ccc(Cl)cc3F)c2c(=O)n1C` (single isomer, unassigned) [Example 88]: the Emax entry was “+++ (Emax>200 and ≤300)”; the EC50 was 0.5 to 3 µM.
Turning to `Cc1nc2cc(N3CCO[C@@H](c4ccnc(Cl)c4)C3)nc(-c3ccc(Cl)cc3F)c2c(=O)n1C` (single isomer, unassigned) [Example 89], the Emax result is listed as “++++ (Emax>300)” and the EC50 lay in the range of 0.05 to 0.5 µM.
Take `Cc1nc2cc(N3CCO[C@@H](c4cccc(C(F)(F)F)c4)C3)nc(-c3ccc(Cl)cc3F)c2c(=O)n1C` (single isomer, unassigned) [Example 91]: the Emax result was “++ (Emax>100 and ≤200)”; the EC50 was 0.5 to 3 µM.
On to `Cc1nc2cc(N3CCO[C@H](c4cccc(C(F)(F)F)c4)C3)nc(-c3ccc(Cl)cc3F)c2c(=O)n1C` (single isomer, unassigned) [Example 92], for which the Emax result is “++++ (Emax>300)” and the 50% effective concentration (EC50) lay in the range of 0.05 to 0.5 µM.
